# Measured values: US12403129B2, “Isotope-enriched 3-amino-1-propanesulfonic acid derivatives for the treatment of cerebrovascular disease” (RISEN (SUZHOU) PHARMA TECH CO., LTD., priority 2021, dated 2025)
# Key:
# [1] = system: mouse model of dementia caused by cerebral ischemia-reperfusion; experiment: Cognitive tests in mouse model of dementia caused by cerebral ischemia-reperfusion; assay type: in vivo, C57BL/6J mice
# Experimental: 140 healthy C57BL/6J mice, including 70 males and 70 females, were used. 1% Pentobarbital Sodium (50 mg/kg) was injected intraperitoneally to anesthetize the mice. The back position was fixed, the neck hair was removed, and the common carotid arteries were cut along the middle of the neck after iodophor disinfection. The common carotid arteries were separated, clamped with a noninvasive artery clamp for 15 minutes, released for 10 minutes, and then clamped for 10 minutes. Penicillin powder was then applied to suture muscles and skin. The sham operation group was not clamped, and other operations were the same as for the model group. […] Mice were divided into 6 groups: sham operation group, model group, positive control group (donepezil) and test compound group (different doses). Test compounds were administered by gavage to each group on the next day of modeling. The compound group was given compounds once a day in the morning and evening, and the volume of each gavage was 10 ml/kg. Half of the animals in the sham operation group and the model group were given the same amount of distilled water, and half of the animals were given the same amount of 1% sodium carboxymethylcellulose solution. From the 16th day of administration, Y maze, new object discrimination (days 17-20), spontaneous activity (days 20), Morris water maze (days 23-28) and dark avoidance experiment (days 29-30) were carried out successively. During the behavioral experiment, the administration of compound was continued until the animals were sacrificed.
# The main pathological index included: investigation of the improvement of learning and memory impairment by the compound in the pathogenic model of cerebral ischemia-reperfusion using behavioral experimental methods such as Y maze, new object discrimination, spontaneous activity, Morris water maze and passive avoidance experiment (dark avoidance); investigation of the ultrastructure of nerve cells (including nucleus, mitochondria and synapse) by HE staining and immunofluorescence; detection of expression of synaptic associated proteins SYP and PSD95 by Western blotting; and detection of expression of apoptosis-related proteins Bcl-2 and Bax by Western blotting. The experimental results for compound 4 on the expression of SYP and PSD95 in the hippocampus of dementia model mice induced by cerebral ischemia-reperfusion are shown in FIG. 5 and FIG. 6 and in Table V below. Experimental results were analyzed statistically using IBM SPSS 21.0 software. The differences between groups were compared by one-way ANOVA or two-way ANOVA (water maze directional navigation) and LSD test. Experimental data were expressed by “mean±SEM”, P<0.05.
# [2] = system: Bcl-2; experiment: Bcl-2 expression by Western blotting, ischemia-reperfusion dementia mice; assay type: in vivo, C57BL/6J mice
# Experimental: (§1) 140 healthy C57BL/6J mice, including 70 males and 70 females, were used. 1% Pentobarbital Sodium (50 mg/kg) was injected intraperitoneally to anesthetize the mice. The back position was fixed, the neck hair was removed, and the common carotid arteries were cut along the middle of the neck after iodophor disinfection. The common carotid arteries were separated, clamped with a noninvasive artery clamp for 15 minutes, released for 10 minutes, and then clamped for 10 minutes. Penicillin powder was then applied to suture muscles and skin. The sham operation group was not clamped, and other operations were the same as for the model group. […]
# (§2) The main pathological index included: investigation of the improvement of learning and memory impairment by the compound in the pathogenic model of cerebral ischemia-reperfusion using behavioral experimental methods such as Y maze, new object discrimination, spontaneous activity, Morris water maze and passive avoidance experiment (dark avoidance); investigation of the ultrastructure of nerve cells (including nucleus, mitochondria and synapse) by HE staining and immunofluorescence; detection of expression of synaptic associated proteins SYP and PSD95 by Western blotting; and detection of expression of apoptosis-related proteins Bcl-2 and Bax by Western blotting. […] Experimental results were analyzed statistically using IBM SPSS 21.0 software. […]
# [3] = system: Bax; experiment: Bax expression by Western blotting, ischemia-reperfusion dementia mice; assay type: in vivo, C57BL/6J mice
# Experimental: as §1, §2
# [4] = system: rat model of dementia caused by multiple cerebral infarction; experiment: Cognitive tests in rat model of dementia caused by multiple cerebral infarction; assay type: in vivo, SD rats; conditions: for Discrimination coefficient for new objects, p compared with model group / Priority index for new objects, p compared with model group: n = 12-14
# Experimental: 135 SPF grade SD rats (75 females, 60 males, weighing 200-220 g) were used. Anesthesia was performed by intraperitoneal injection of 3.5% chloral hydrate (350 mg/kg). After dorsal fixation, neck hair removal and iodophor disinfection, animals were cut along the middle of the neck to separate the right common carotid artery, external carotid artery and internal carotid artery. The common carotid artery was temporarily clamped by the artery clamp, the left external carotid artery was retrogradely punctured to the beginning of the left internal carotid artery with a pediatric scalp needle, and then 0.4 ml of embolic normal saline suspension was slowly injected with a syringe (the preparation of embolic normal saline suspension was as follows: blood was collected from the abdominal aorta of the same rat, dried naturally in a 37° C. incubator, and prepared for 80-200 minutes to form a blood clot; during application, 0.3 ml normal saline was added to every 10 mg blood clot), and the common carotid artery clamp was opened at the same time, then the external carotid artery was ligated and the skin was sutured. In the sham operation group, 0.4 ml normal saline was used instead of embolic suspension. The experimental animals were randomly divided into 6 groups according to weight balance, as follows: sham operation group, model group, positive control group (donepezil) and test compound group (different doses). There were 12-14 rats in each group. The animals in each group began to give drugs by gavage after modeling until the end of the experiment. The animals underwent Y maze experiment on the 16th day of administration, new object discrimination experiment on the 17th-20th day, Morris water maze experiment on the 22nd-27th day, and dark avoidance experiment on the 28th-29th day. On the 30th day, animals were sacrificed and tissues harvested for analysis.
# The main pathological indexes included investigation of the improvement of learning and memory impairment in the dementia model animal by test compound using behavioral experimental methods such as Y maze, new object discrimination, Morris water maze and passive avoidance test (dark avoidance); investigation of the protective effect of test compound on mitochondria by detecting the content of ATP in hippocampus and cortex of rats; and investigation of levels of oxidative stress in the rat brain by measuring activity of superoxide dismutase (SOD, which is an oxygen free-radical scavenger), glutathione peroxidase (GSH-Px, which scavenges lipid peroxides induced by reactive oxygen species and —OH), nitric oxide synthase (NOS), malondialdehyde (MDA), and nitric oxide (NO). The ultrastructure of nerve cells (including nucleus, mitochondria and synapse) was investigated using immunofluorescence and transmission electron microscope. Expression of synaptic associated proteins SYP and PSD95 was detected by Western blotting. Experimental results for compound 4 on the concentration of nitric oxide (NO), the activity of nitric oxide synthase (NOS) and the ultrastructure of nerve cells in the rat model of dementia caused by multiple cerebral infarction are shown in FIGS. 7-11. Experimental results were statistically analyzed using IBM SPSS 21.0 software. The differences between groups were compared by one-way ANOVA or two-way ANOVA (water maze directional navigation) and LSD test.
# [5] = system: MBP; experiment: MBP expression, multiple cerebral infarction dementia rats; assay type: in vivo, SD rats; conditions: compared with the model group, p<0.05
# Experimental: 135 SPF grade SD rats (75 females, 60 males, weighing 200-220 g) were used. Anesthesia was performed by intraperitoneal injection of 3.5% chloral hydrate (350 mg/kg). After dorsal fixation, neck hair removal and iodophor disinfection, animals were cut along the middle of the neck to separate the right common carotid artery, external carotid artery and internal carotid artery. […]
# The main pathological indexes included investigation of the improvement of learning and memory impairment in the dementia model animal by test compound using behavioral experimental methods such as Y maze, new object discrimination, Morris water maze and passive avoidance test (dark avoidance); investigation of the protective effect of test compound on mitochondria by detecting the content of ATP in hippocampus and cortex of rats; and investigation of levels of oxidative stress in the rat brain by measuring activity of superoxide dismutase (SOD, which is an oxygen free-radical scavenger), glutathione peroxidase (GSH-Px, which scavenges lipid peroxides induced by reactive oxygen species and —OH), nitric oxide synthase (NOS), malondialdehyde (MDA), and nitric oxide (NO). […] Expression of synaptic associated proteins SYP and PSD95 was detected by Western blotting. […] Experimental results were statistically analyzed using IBM SPSS 21.0 software. […]
# [6] = Test group vs model group, n = 15-17, dose not stated
# [7] = mice, gavage, morning and evening
# [8] = Test group vs model group, n = 12-14, dose not given
# [9] = first listing in Table VII, Test group vs model group
# [10] = second listing in Table VII, Test group vs model group
smiles,measurement,setting,value
"[2H]C([2H])(CCS(=O)(=O)O)NC(=O)[C@@H](N)C(C)C [compound 4, 3-((L-valyl)amino)-3,3-dideuterium-1-propanesulfonic Acid]","Discrimination coefficient for new objects, p compared with model group",[1]; [6],p < 0.05
same,"Percentage of swimming distance, p compared with model group",[1]; [6],p < 0.05
same,"Priority index for new objects, p compared with model group",[1]; [6],p < 0.05
same,"Spontaneous alternating response rate, p compared with model group",[1]; [6],p < 0.05
same,"Swimming time in target quadrant, p compared with model group",[1]; [6],p < 0.05
same,"The incubation period for entering the darkroom, p compared with model group",[1]; [6],p < 0.05
same,"Times of crossing the platform, p compared with model group",[1]; [6],p < 0.01
same,discrimination coefficient to new objects in the new object discrimination experiment,[1]; [7],improved
same,incubation period of entering the dark room in the dark avoidance experiment,[1]; [7],prolonged
same,number of times of crossing the platform,[1]; [7],increased
same,percentage of swimming distance in the target quadrant,[1]; [7],improved
same,priority index to new objects in the new object discrimination experiment,[1]; [7],improved
same,spontaneous alternating response rate in the Y maze experiment,[1]; [7],significantly improved
same,swimming time in the target quadrant in the water maze test,[1]; [7],prolonged
same,"working memory, image recognition memory, spatial memory and long-term memory impairment",[1]; vascular dementia mice caused by cerebral ischemia-reperfusion,can significantly improve
same,"Bcl-2 expression, p compared with model group",[2]; [6],p < 0.01
same,expression of Bcl-2,[2]; compared with the model group,increased
same,"Bax expression, p compared with model group",[3]; [6],p < 0.01
same,expression of Bax,[3]; compared with the model group,reduced
same,"Percentage of swimming distance, p compared with model group",[4]; [8],p < 0.001
same,"Spontaneous alternating response rate, p compared with model group",[4]; [8],p < 0.001
same,"Swimming time in target quadrant, p compared with model group",[4]; [8],p < 0.05
same,"The incubation period for entering the darkroom, p compared with model group",[4]; [8],p < 0.05
same,"Times of threading, p compared with model group",[4]; [8],p < 0.05
same,"Discrimination coefficient for new objects, p compared with model group",[4]; [9],p < 0.05
same,"Priority index for new objects, p compared with model group",[4]; [9],p < 0.05
same,"working memory, image recognition and memory, spatial memory and long-term memory impairment",[4]; rat model of dementia caused by multiple infarction,may improve
same,discrimination coefficient to new objects in the new object discrimination experiment,"[4]; rats, gavage",can improve
same,escape latency of directional navigation,"[4]; rats, gavage",can improve
same,number of errors entering the dark room in the dark avoidance experiment,"[4]; rats, gavage",can improve
same,number of times of crossing the platform,"[4]; rats, gavage",can improve
same,percentage of swimming distance in the target quadrant,"[4]; rats, gavage",can improve
same,priority index to new objects in the new object discrimination experiment,"[4]; rats, gavage",can improve
same,spontaneous alternating reaction rate in the Y maze,"[4]; rats, gavage",can improve
same,swimming time in the target quadrant,"[4]; rats, gavage",can improve
same,total swimming distance in the water maze test,"[4]; rats, gavage",can improve
same,"Discrimination coefficient for new objects, p compared with model group",[4]; [10],p < 0.05
same,"Priority index for new objects, p compared with model group",[4]; [10],p < 0.01
same,MBP expression,[5],increased
